The source of these data is patent US20120258113A1, “SUSBSTANTIALLY PURE STEROIDOGENESIS INDUCING PEPTIDE AND USES THEREOF” (CLARK ATLANTA UNIVERSITY, priority 2006, published 2012).

Entries after “also recorded” stand apart in the source; their conditions may differ.

One assay concerns Leydig cells. Kind of assay: Effect of kinase inhibitors on SIP-stimulated DNA synthesis in Leydig cells. Type of assay: cell-based, rat. The conditions noted are these: PD98059 25 μM; LY294002 5 μM; with SIP. The procedure: (§1) Immature rat Leydig cells and various cancer cell lines were starved for 48 hours before treatment. The cells were then treated with SIP, the polypeptide having the amino acid sequence identified as SEQ ID NO:2, LH, and EGF for 18 hours. The incubation media were collected (Leydig cells) and analyzed for total androgen production. ^3H-thymidine (1 μCi/ml) was added to the cells for further 4 hours incubation. Then the hot media were removed; ice-cold water was added to the cells which were lysed by sonication. The cell lysates were filterd through DE81 ion-exchanger filters. The filter membranes were then put in vials filled with scintillation fluid, and the radioactivity was measured by a Beckman β-counter.
Immature Leydig cells were cultured for 18 h and treated with different concentrations of oLH, SIP and EGF. For some experiments, the cells were treated with oLH or SIP for 18 h in the absence or presence of inhibitors of tyrosine kinase (Genistein; 10 uM), MAPK-kinase (PD98059; 25 μM), PI3-kinase (LY294002; 5 μM) or PKA (H89; 10 μM) to determine the intracellular signaling pathways involved in the effects of SIP on androgen production. The incubation media were collected and analyzed for total androgens using a radioimmunoassay, as described previously (Dickson et al., 2002). […] All samples were analyzed in the same assay, and the intra-assay coefficient of variation was <10%.

In assay [1] the test system is MAP-kinase signaling pathway (Ras, MEK, ERK). As to the kind of experiment: Activation of MAP-kinase signaling pathway in Leydig cells (activation specific immunoblots). Type of assay: cell-based, rat. The conditions noted are these: 30 minutes. The procedure:
(§2) To determine the effects of SIP and EGF on activation of proteins involved in either MAP-kinase or PI3-kinase signaling pathway, immature Leydig cells were cultured in 6-well plates. The cells were washed and treated with SIP (50 μg/ml) or EGF (10 ng/ml) for 30 min in the presence or absence of inhibitors of MAPK-kinase (PD98059; 25 μM) or PI3-kinase (LY294002; 5 μM). The cells were washed twice with ice-cold phosphate-buffered saline and lysed in lysis buffer (Cell Signaling Technology, Beverly, Mass.) containing 20 mM Tris-HCl (pH 7.5), 150 mM NaCl, 1 mM Na2EDTA, 1 mM EGTA, 1% Triton, 2.5 mM sodium pyrophosphate, 1 mM β-glycerophosphate, 1 mM Na3VO4, 1 μg/ml leupeptin and 1× protease inhibitor cocktail (Calbiochem, San Diego, Calif.). Protein concentrations were determined by the Lowry HS assay using the Bio-Rad DCProtein Assay kit (Bio-Rad, Hercules, Calif.) according to the instruction provided by the manufacturer. Cell lysates were mixed with Lammeli's buffer (62.5 mM Tris, pH 6.8, 2% SDS, 5% β-mercaptoethanol and 10% glycerol), and individual samples (25 μg protein) were subjected to SDS-PAGE in 10% gels and transferred to PVDF membranes (Millipore). The membranes were blocked overnight at 4° C. in TBST (50 mM Tris, pH 7.5, containing 0.15M NaCl, 0.05% Tween-20 and 4% fat-free skimmed milk). […]

Assay [2] relates to immature rat Leydig cells. As to the kind of experiment: Thymidine incorporation assay (DNA synthesis) in immature rat Leydig cells. In kind it is cell-based. Conditions: 3H-thymidine incorporation. On the procedure: Immature rat Leydig cells (ILC) were isolated from 10-day old rat testes and cultured with serum-free medium before treatment. Immature rats were sacrificed at 10 days of age, and the testes were removed Immature Leydig cells were isolated and cultured. The decapsulated testes were incubated for 5 min in culture medium containing 0.25 mg collagenase/ml (Type I, Sigma) in shaking water bath. The seminiferous tubules were allowed to settle at unit gravity for 5 min, and the supernatant containing the suspension of interstitial cells was removed. The supernatant was centrifuged at 90×g for 10 min, and the cell pellet was washed twice by re-suspension in fresh medium followed by centrifugation. […] Immature Leydig cells cultured in 24-well plates (2×10^5 cells/well) were treated with several doses of oLH for 48 h, and the conditioned media were analyzed for androgen content.
Immature rat Leydig cells and various cancer cell lines were starved for 48 hours before treatment. […] The incubation media were collected (Leydig cells) and analyzed for total androgen production. ^3H-thymidine (1 μCi/ml) was added to the cells for further 4 hours incubation. […] The filter membranes were then put in vials filled with scintillation fluid, and the radioactivity was measured by a Beckman β-counter.
In general terms: Dividing cells build labelled thymidine or BrdU into new DNA.

The next assay deals with StAR mRNA. Kind of assay: StAR mRNA expression in rat Leydig cells (RT-PCR). Type of assay: cell-based. Conditions: Leydig cells treated for 24 hour. On the procedure:
Total RNA was isolated from Leydig cells using TRIzol (Invitrogen, Carlsbad, Calif.) followed by chloroform extraction and isopropanol precipitation. Two micrograms of total RNA were reverse transcribed at 37° C. for 1 h in a reaction mixture containing 0.5 mM dNTP (Fisher Scientific), 400 U of M-MLV Reverse Transcriptase (Promega), 1×RT buffer, 0.5 mM dithiotreitol (Bio-Rad) and 0.5 μg of oligo dT (Promega). After incubation, the RT enzyme was heat inactivated at 70° C. for […] and the reaction cooled to 4° C. Four microliters of RT reactions were added to separate PCR reaction mixtures (total 10 μl) containing 0.1 mM dNTPs, (Fisher), 0.5 U Tag DNA polymerase (PGC Scientifics, Frederick, Md.), 1×PCR buffer with 3 mM MgC12 (Idaho Technology, Salt Lake City, Utah) and […] of the specific primers for the following genes: scavenger receptor B type 1 (SR-B1), cytochrome P450 cholesterol side-chain cleavage (P450scc), 3β-hydroxysteroid dehydrogenase (3β-HSD), 17 alpha-hydroxylase/C17-20 lyase (P450c17) and steroidogenic acute regulatory (StAR) protein. L19 (a ribosomal protein) primer pair was used as internal control. The following protocol was used in the Rapid Cycler thermal cycler (Idaho Technology): 94° C. for 15 s (initial denaturation), followed by 94° C. for 0 s, 60° C. for 0 s, 72° C. for 20 s for 35 cycles, and 72° C. for 30 s (final extension). […]

Assay [3] has as its system tyrosine phosphorylation of Leydig cell proteins. Kind of assay: Tyrosine phosphorylation of Leydig cell proteins (phospho-tyrosine immunoblot). Conditions: Leydig cells treated for 30 minutes; listed as synthetic peptide 2. In kind it is cell-based, rat. The procedure:
as §2
In general terms: Immunoblotting shows a protein as a band on a membrane.

For the next assay, the system named is PI3-kinase/AKT pathway. As to the kind of experiment: Activation of PI3-kinase/AKT pathway in rat Leydig cells (activation specific antibodies). Conditions: 30 min. Type of assay: cell-based. The procedure:
as §2

The next assay relates to StAR protein. As to the kind of experiment: StAR protein expression in rat Leydig cells (Western blotting). In kind it is cell-based. The conditions noted are these: Leydig cells treated for 24 hour, listed as synthetic peptide 2.
Assay [4] deals with immature rat Leydig cells and ovarian, prostate and liver cancer cell lines. Kind of assay: DNA synthesis in Leydig cells and cancer cell lines (summary of FIGS. 8-10). In kind it is cell-based. The procedure:
(§3) Ovarian (HEY, SKA), prostate (DU145, PC3) and breast (MCF7) cancer cell lines were cultured and maintained using well-established culture procedures.
as §1

In the next assay the test system is rat Leydig cells. Kind of assay: Testosterone production by rat Leydig cells (radioimmunoassay). In kind it is cell-based. Conditions: cultured 6, 24 or 48 hours; for testosterone production: radioimmunoassay. On the procedure: Immature rat Leydig cells (ILC) were isolated from 10-day old rat testes and cultured with serum-free medium before treatment. Immature rats were sacrificed at 10 days of age, and the testes were removed Immature Leydig cells were isolated and cultured. The decapsulated testes were incubated for 5 min in culture medium containing 0.25 mg collagenase/ml (Type I, Sigma) in shaking water bath. The seminiferous tubules were allowed to settle at unit gravity for 5 min, and the supernatant containing the suspension of interstitial cells was removed. The supernatant was centrifuged at 90×g for 10 min, and the cell pellet was washed twice by re-suspension in fresh medium followed by centrifugation. The cell suspension was plated in 24-well tissue culture plates (Nunclon; Nunc, Roskilde, Denmark; 2×10^5 cells/well) or in 6-well plates (2×10^6 cells/well) depending upon the end point of the experiment. The cells were cultured at 37° C. in a humidified atmosphere of 5% CO2 and 95% air in serum-free medium. After 1 h, the immature Leydig cells were well attached to the surface of the culture plates, whereas contaminating cells (Sertoli cells, germ cells, precursor Leydig cells) were loosely attached. The cells were washed three times with medium to remove loosely attached cells. At this stage, the cell preparation contains more than 90% immature Leydig cells. Immature Leydig cells cultured in 24-well plates (2×10^5 cells/well) were treated with several doses of oLH for 48 h, and the conditioned media were analyzed for androgen content.
Immature Leydig cells were cultured for 18 h and treated with different concentrations of oLH, SIP and EGF. […] The incubation media were collected and analyzed for total androgens using a radioimmunoassay, as described previously (Dickson et al., 2002). […] All samples were analyzed in the same assay, and the intra-assay coefficient of variation was <10%.

The subject of assay [5] is human ovarian epithelial cancer (HEY) cells. As to the kind of experiment: Thymidine incorporation assay (DNA synthesis) in HEY cells. In kind it is cell-based. The conditions noted are these: different doses of peptide. The procedure:
as §3, §1

Consider `COc1cccc(-c2cc(=O)c3ccccc3o2)c1N` [PD98059], for which the “effect of inhibitor on SIP effects on DNA synthesis” value with Leydig cells is given as “blocks the effects of SIP on DNA synthesis”.

Turning to DVNGGGATLPQPLYQTA [peptide 2], the “activation of MAP-kinase pathway (Ras, MEK, ERK1/ERK2 phosphorylation)” value in [1] is recorded as “activated”; in assay [1] (listed as synthetic peptide 2), “significant induction of phosphorylation”. For the same molecule, the DNA synthesis entry in assay [2] is recorded as “capable of inducing proliferation of immature rat Leydig cells”; in [5], “capable of exerting mitogenic effects”. Moreover, in the assay with StAR mRNA, the “expression of StAR mRNA” value is “induce the expression of StAR mRNA”. Moreover, the “tyrosine phosphorylation of cell proteins” value in assay [3] was “induces the phosphorylation of several proteins at tyrosine; also recorded: capable of binding to SIP receptors and initiating signaling cascade”. In addition, the “activation of PI3-kinase/AKT pathway (AKT phosphorylation)” value in the assay on PI3-kinase/AKT pathway is “activated”; in the assay with PI3-kinase/AKT pathway (listed as synthetic peptide 2) it was “significant induction of phosphorylation”. The “expression of StAR protein” value in the assay with StAR protein was “stimulated the induction of StAR protein; also recorded: induce the expression of protein”. For the same molecule, the “DNA synthesis in different cells” value in assay [4] is on record as “significant stimulation of DNA synthesis”. For the same molecule, in the assay with rat Leydig cells, the “testosterone production compared with purified SIP” value is “not as high as those observed with purified SIP”. Further, the testosterone production entry with rat Leydig cells (listed as SEQ ID NO:2) is listed as “significant stimulation of testosterone production”; in the assay with rat Leydig cells (listed as synthetic SIP peptide 2), “stimulation of testosterone production”.
